The subject of the assay is ERK1/2 downstream signaling. The assay can be described thus: ERK1/2 activation Western blot, PAE-VEGFR-I cells. It is filed as cell-based. Conditions: PAE-VEGFR-I transfectant cells, FIGS. 12-14. Here is the method: Autophosphorylation of the VEGFR-I induced by its ligands and resulting activation of a classical MAPK, extracellular signal-regulated protein kinases 1Z2 (ERK1Z2) and the PBK/Atk downstrean signaling pathways mediate cellular biological responses such as proliferation, motility, survival, and differentiation. The ability of an anti-VEGFR-1 antibody to inhibit phosphorylation of VEGFR-I and activation of ERK1 Z2 and the Akt kinases downstream signaling were determined by using the PAE-VEGFR-I transfectant and BT474 breast carcinoma cells.
PAE-VEGFR-I and BT474 cells were seeded at a density of 5×10^5Zwell in […] plates and cultured in serum-free medium for 18-48 hours. After replacing the culture medium, the cells were treated at 37° C. with anti-VEGFR-I antibody clones 6F9, 15F1 1, and 18F1 or isotype control for 1 hour and then incubated with 50 ng/ml of VEGF or 100 ng/ml of PlGF for 10 minutes. […] Western blot of phosphorylated VEGFR-I was detected using […] antibody (PY-20, Santa Cruz Biotechnology, Santa Cruz, Calif.). Proteins were detected using and […] chemiluminescence system (ECL)(Amersham Pharmacia Biotech, Piscataway, N.J.), and quantified by densitometry using NIH Image (National Institute of Mental Health, Bethesda, Md.). […]
On the technique in general: In western blotting, separated proteins are transferred to a membrane and probed.

“Also recorded” adds a separate entry of the source.

As to “18F1: human anti-VEGFR-1 monoclonal antibody clone; VL SEQ ID NO: 16, VH SEQ ID NO: 20 [Clone 18F1]”, the “PlGF and VEGF induced activation of ERK1/2 downstream signaling” value was “dramatically inhibited; also recorded: inhibition”.

Values taken from patent US8143025B2, “Antibodies against vascular endothelial growth factor receptor-1” (ImClone LLC, priority 2004, dated 2012).
